The results in this text go back to US9751874B2, “Hydroxy containing FXR (NR1H4) modulating compounds” (Gilead Sciences, Inc., priority 2014, dated 2017).

pEC50: −log10 of the molar value.

Test [1] deals with T1, FXR ligand binding domain (Homo sapiens, UniProt Q96RI1).
T1 construct: expressed in transfected cells; host or cells: HEK293 cells, transiently transfected with pCMV-BD-FXR-LBD, pFR-Luc and pRL-CMV
T1 sequence (Q96RI1 187-472 isoform Q96RI1-2): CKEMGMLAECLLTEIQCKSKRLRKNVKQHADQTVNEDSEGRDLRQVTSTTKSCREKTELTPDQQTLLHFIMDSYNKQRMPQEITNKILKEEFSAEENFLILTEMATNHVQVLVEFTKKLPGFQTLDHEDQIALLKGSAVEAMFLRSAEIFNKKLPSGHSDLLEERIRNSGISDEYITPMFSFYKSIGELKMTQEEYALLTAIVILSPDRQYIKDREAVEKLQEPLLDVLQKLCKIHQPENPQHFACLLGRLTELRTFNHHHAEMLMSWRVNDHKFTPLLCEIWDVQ
Description: Mammalian One Hybrid (M1H) assay, Gal4 promoter driven transactivation in HEK293 cells. The test is classed as cell-based. The settings on record: Gal4-FXR-LBD luciferase reporter, 16 h. On the procedure: Mammalian One Hybrid (M1H) Assay
Determination of a ligand mediated Gal4 promoter driven transactivation to quantify ligand binding mediated activation of FXR was performed as follows: The cDNA part encoding the FXR ligand binding domain was cloned into vector pCMV-BD (Stratagene) as a fusion to the yeast GAL4 DNA binding domain under the control of the CMV promoter. The amino acid boundaries of the ligand binding domain were amino acids 187-472 of Database entry NM_005123 (RefSeq). The plasmid pFR-Luc (Stratagene) was used as the reporter plasmid, containing a synthetic promoter with five tandem repeats of the yeast GAL4 binding sites, driving the expression of the Photinus pyralis (American firefly) luciferase gene as the reporter gene. In order to improve experimental accuracy the plasmid pRL-CMV (Promega) was cotransfected. pRL-CMV contains the constitutive CMV promoter, controlling the expression of the Renilla reniformis luciferase. All Gal4 reporter gene assays were done in HEK293 cells (obtained from DSMZ, Braunschweig, Germany) grown in MEM with L-Glutamine and Earle's BSS supplemented with 10% fetal bovine serum, 0.1 mM nonessential amino acids, 1 mM sodium pyruvate, and 100 units Penicilin/[…] per mL at 37° C. in 5% CO2. Medium and supplements were obtained from Invitrogen. For the assay, […] cells were plated per well in 96 well plates in 100 μL per well MEM without Phenol Red and L-Glutamine and with Earle's BSS supplemented with 10% charcoal/dextran treated FBS (HyClone, South Logan, Utah), 0.1 mM nonessential amino acids, 2 mM glutamine, 1 mM sodium pyruvate, and 100 units Penicilin/[…] per mL, incubated at 37° C. in 5% CO2. The following day the cells were >90% confluence. Medium was removed and cells were transiently transfected using 20 μL per well of a OptiMEM—polyethylene-imine-based transfection-reagent (OptiMEM, Invitrogen; Polyethyleneimine, Aldrich Cat No. 40,827-7) including the three plasmids described above. MEM with the same composition as used for plating cells was added 2-4 h after addition of transfection mixture. Then compound stocks, prediluted in MEM were added (final vehicle concentration not exceeding 0.1%). Cells were incubated for additional 16 h before firefly and renilla luciferase activities were measured sequentially in the same cell extract using a Dual-Light-Luciferase-Assay system (Dyer et al., Anal. Biochem. 2000, 282, 158-161). All experiments were done in triplicates.

Test [2] deals with T2, human FXR alpha ligand binding domain (Homo sapiens, UniProt Q96RI1).
T2 construct: made in house; host or cells: E. coli BL21(DE3), vector pDEST15
T2 sequence (Q96RI1 187-472 isoform Q96RI1-2): T1 sequence (Q96RI1 187-472 isoform Q96RI1-2)
Description: FRET activity assay (ligand mediated cofactor peptide interaction, LANCE). The conditions noted are these: GST-FXR-LBD / biotinylated SRC-1 peptide (676-700), read-out: F EC50. The test is classed as biochemical. As to the method:
Determination of a ligand mediated cofactor peptide interaction to quantify ligand binding to the nuclear receptor FXR was performed as follows: Preparation of human FXR alpha ligand binding domain: The human FXRalpha LBD was expressed in E. coli strain BL21(DE3) as an N-terminally GST tagged fusion protein. The DNA encoding the FXR ligand binding domain was cloned into vector pDEST15 (Invitrogen). Expression was under control of an IPTG inducible T7 promoter. The amino acid boundaries of the ligand binding domain were amino acids 187-472 of Database entry NM_005123 (RefSeq). Expression and purification of the FXR-LBD: An overnight preculture of a transformed E. coli strain was diluted 1:20 in LB-Ampicillin medium and grown at 30° C. to an optical density of OD600=0.4-0.6. Gene expression was then induced by addition of 0.5 mM IPTG. Cells were incubated an additional 6 h at 30° C., 180 rpm. Cells were collected by centrifugation (7000×g, 7 min, rt). Per liter of original cell culture, cells were resuspended in 10 mL lysis buffer (50 mM Glucose, 50 mM Tris pH 7.9, 1 mM EDTA and 4 mg/mL lysozyme) and left on ice for 30 min. Cells were then subjected to sonication and cell debris removed via centrifugation (22000×g, 30 min, 4° C.). Per 10 mL of supernatant 0.5 mL prewashed Glutathione 4B sepharose slurry (Qiagen) was added and the suspension kept slowly rotating for 1 h at 4° C. Glutathione 4B sepharose beads were pelleted by centrifugation (2000×g, 15 sec, 4° C.) and washed twice in wash buffer (25 mM Tris, 50 mM KCl, 4 mM MgCl2 and 1M NaCl). The pellet was resuspended in 3 mL elution buffer per liter of original culture (elution buffer: 20 mM Tris, 60 mM KCl, 5 mM MgCl2 and 80 mM glutathione added immediately prior to use as powder). The suspension was left rotating for 15 min at 4° C., the beads pelleted and eluted again with half the volume of elution buffer than the first time. The eluates were pooled and dialysed overnight in 20 mM Hepes buffer (pH 7.5) containing 60 mM KCl, 5 mM MgCl2 as well as 1 mM dithiothreitol and 10% (v/v) glycerol. The protein was analysed by SDS-Page.
The method measures the ability of putative ligands to modulate the interaction between the purified bacterial expressed FXR ligand binding domain (LBD) and a synthetic biotinylated peptide based on residues 676-700 of SRC-1 (LCD2, 676-700). The sequence of the peptide used was B—[…]—COOH where the N-terminus was biotinylated (B). The ligand binding domain (LBD) of FXR was expressed as fusion protein with GST in BL-21 cells using the vector pDEST15. Cells were lysed by sonication, and the fusion proteins purified over glutathione sepharose (Pharmacia) according to the manufacturers instructions. For screening of compounds for their influence on the FXR-peptide interaction, the Perkin Elmer LANCE technology was applied. This method relies on the binding dependent energy transfer from a donor to an acceptor fluorophor attached to the binding partner of interest. For ease of handling and reduction of background from compound fluorescence LANCE technology makes use of generic fluorophore labels and time resolved detection Assays were done in a final volume of 25 μL in a 384 well plate, in a Tris-based buffer (20 mM Tris-HCl pH 7.5; 60 mM KCl, 5 mM MgCl2; 35 ng/μL BSA), containing 20-60 ng/well recombinantly expressed FXR-LBD fused to GST, 200-600 nM N-terminally biotinylated peptide, representing SRC1 aminoacids 676-700, 200 ng/well Streptavidin-xIAPC conjugate (Prozyme) and 6-10 ng/well Eu W1024-antiGST (Perkin Elmer). DMSO content of the samples was kept at 1%. After generation of the assay mix and diluting the potentially FXR modulating ligands, the assay was equilibrated for 1 h in the dark at rt in FIA-plates black 384 well (Greiner). The LANCE signal was detected by a Perkin Elmer VICTOR2VTM Multilabel Counter. The results were visualized by plotting the ratio between the emitted light at 665 and 615 nm. […]
(In general: Time-resolved FRET reads energy transfer from a long-lived donor to a nearby acceptor.)

Usually pEC50 stands for the EC50 on a negative log10 scale, so that one unit is a factor of ten. For the compound `O=C(O)c1ccc2nc([C@]3(O)CC[C@@H](OCc4c(C5CC5)cnn4-c4c(Cl)cccc4Cl)CC3)sc2c1` [Example 11-13, 2-((1s,4s)-4-((4-Cyclopropyl-1-(2,6-dichlorophenyl)-1H-pyrazol-5-yl)methoxy)-1-hydroxycyclohexyl)benzo[d]thiazole-6-carboxylic acid], the negative-log EC50 (pEC50) was 6.36 in test [1] and 6.96 in test [2].

Turning to `O=C(O)c1ccc2nc([C@]3(O)CC[C@@H](OCc4c(-c5ccccc5OC(F)(F)F)noc4C4CC4)CC3)sc2c1` [Example 11-14, 2-((1s,4s)-4-((5-Cyclopropyl-3-(2-(trifluoromethoxy)phenyl)isoxazol-4-yl)methoxy)-1-hydroxycyclohexyl)benzo[d]thiazole-6-carboxylic acid], the pEC50 in test [1] is 6.57; in test [2] it was 6.64.

For the compound `O=C(O)c1ccc2nc([C@]3(O)CC[C@@H](OCc4c(-c5ccccc5C(F)F)noc4C4CC4)CC3)sc2c1` [Example 11-15, 2-((1s,4s)-4-((5-Cyclopropyl-3-(2-(difluoromethyl)phenyl)isoxazol-4-yl)methoxy)-1-hydroxycyclohexyl)benzo[d]thiazole-6-carboxylic acid], the pEC50 in test [1] is 5.66; in test [2] it was 5.82.

For the compound `O=C(O)c1ccc2nc([C@]3(O)CC[C@@H](OCc4c(-c5c(Cl)cncc5Cl)noc4C4CC4)CC3)sc2c1` [Example 11-16, 2-((1s,4s)-4-((5-Cyclopropyl-3-(3,5-dichloropyridin-4-yl)isoxazol-4-yl)methoxy)-1-hydroxycyclohexyl)benzo[d]thiazole-6-carboxylic acid], the pEC50 is 6.24 in test [1] and 7.08 in test [2].

In the case of `O=C(O)c1ccc2nc([C@]3(O)CC[C@@H](OCc4c(C5CC5)cnn4-c4ccccc4OC(F)F)CC3)sc2c1` [Example 11-17, 2-((1s,4s)-4-((4-Cyclopropyl-1-(2-(difluoromethoxy)phenyl)-1H-pyrazol-5-yl)methoxy)-1-hydroxycyclohexyl)benzo[d]thiazole-6-carboxylic acid], the pEC50 in test [1] is 5.74; in test [2], 6.01.

On to `O=C(O)c1ccc2nc([C@]3(O)CC[C@@H](OCc4c(-c5c(C(F)F)cccc5C(F)F)noc4C4CC4)CC3)sc2c1` [Example 11-18, 2-((1s,4s)-4-((3-(2,6-Bis(difluoromethyl)phenyl)-5-cyclopropylisoxazol-4-yl)methoxy)-1-hydroxycyclohexyl)benzo[d]thiazole-6-carboxylic acid], for which the pEC50 in test [1] is 6.77; in test [2], 6.46.

Take `O=C(O)c1cc2sc([C@]3(O)CC[C@@H](OCc4c(-c5ccccc5OC(F)F)noc4C4CC4)CC3)nc2cc1F` [Example 11-19, 2-((1s,4s)-4-((5-Cyclopropyl-3-(2-(difluoromethoxy)phenyl)isoxazol-4-yl)methoxy)-1-hydroxycyclohexyl)-5-fluorobenzo[d]thiazole-6-carboxylic acid]: the pEC50 was 5.60 in test [1] and 6.24 in test [2].

Consider `O=C(O)c1cc2sc([C@]3(O)CC[C@@H](OCc4c(-c5c(Cl)cccc5Cl)noc4C4CC4)CC3)nc2cc1F` [Example 11-20, 2-((1s,4s)-4-((5-Cyclopropyl-3-(2,6-dichlorophenyl)isoxazol-4-yl)methoxy)-1-hydroxycyclohexyl)-5-fluorobenzo[d]thiazole-6-carboxylic acid], for which the pEC50 in test [1] was 5.82; in test [2] it was 6.74.

On to `O=C(O)c1cc(F)c2nc([C@]3(O)C[C@@H](OCc4c(-c5c(Cl)cccc5Cl)noc4C4CC4)C3)sc2c1` [Example 11-21, 2-((1s,3s)-3-((5-Cyclopropyl-3-(2,6-dichlorophenyl)isoxazol-4-yl)methoxy)-1-hydroxycyclobutyl)-4-fluorobenzo[d]thiazole-6-carboxylic acid], for which the pEC50 in test [1] was 6.51; in test [2], 7.64.

For `O=C(O)c1ccc2nc([C@]3(O)[C@@H]4CC[C@H]3C[C@H](OCc3c(-c5c(Cl)cccc5Cl)noc3C3CC3)C4)sc2c1` [Example 11-22, 2-((1R,3s,5S,8r)-3-((5-cyclopropyl-3-(2,6-dichlorophenyl)isoxazol-4-yl)methoxy)-8-hydroxybicyclo[3.2.1]octan-8-yl)benzo[d]thiazole-6-carboxylic acid], the pEC50 in test [1] is 8.80; in test [2] it was 8.43.

In the case of `O=C(O)c1ccc2nc([C@]3(O)[C@@H]4CC[C@H]3C[C@@H](OCc3c(-c5c(Cl)cccc5Cl)noc3C3CC3)C4)sc2c1` [Example 11-23, 2-((1R,3r,5S,8r)-3-((5-Cyclopropyl-3-(2,6-dichlorophenyl)isoxazol-4-yl)methoxy)-8-hydroxybicyclo[3.2.1]octan-8-yl)benzo[d]thiazole-6-carboxylic acid], the results for the pEC50 in test [1] and in test [2] were 7.74 and 7.39, respectively.

For `O=C(O)c1ccc([C@]2(O)[C@@H]3CC[C@H]2C[C@H](OCc2c(-c4c(Cl)cccc4Cl)noc2C2CC2)C3)c(F)c1` [Example 11-24], the figures for the pEC50 in test [1] and in test [2] were 7.85 and 8.11, respectively.
